# Measurements published in patent publication US20050203013A1, “Methods for inhibiting vascular permeability” (priority 2002, published 2005).
# Like-named read-outs stand apart in the source and are kept apart here.
# Assays:
# liver regeneration = test: Liver regeneration after 2/3 hepatectomy; type: in vivo, C57 black male mice; conditions: post-operative day 8
# Description: C57 black male mice underwent a ⅔ hepatectomy through a midline incision after general anesthesia with isoflourane. Free and conjugated TNP-470 (30 mg/kg) was given s.c. every other day for 8 days beginning on the day of surgery. The liver was harvested on the 8th day, weighed and analyzed for histology.
# [1] = system: IL-2-induced pulmonary edema; test: IL-2 associated pulmonary edema; type: in vivo, C57B1/6J male mice
# Description: C57B1/6J male mice were injected with TNP-470 (30 mg/kg daily) or saline subcutaneously (s.c.) for three days. Then mice were injected with IL-2 (1.2×106 units/100 μl) or saline intraperitoneally (i.p.) 3 times a day for 5 days. At termination mice were euthanized and lungs were dissected, weighed, fixed and processed for H & E staining.
# [2] = system: VEGF-induced skin permeability; test: Modified Miles assay with VEGF dose response; type: in vivo, C57 mice; conditions: 30 mg/kg/d s.c. for 3 days, intradermal VEGF
# Source text: TNP-470, HPMA copolymer-TNP-470 and angiostatin all inhibited Evan's blue extravasation into A2058 melanoma (P<0.03 versus control), murine Lewis lung carcinoma (P<0.05), MCF-7 breast carcinoma (P<0.04), MDA-MB-231 breast carcinoma (P<0.05) and BXPC3 pancreatic adenocarcinoma (P<0.04) by 40-90% compared to control tumors treated with saline (FIG. 16B). […] In order to test the effect of VEGF secreted from the tumor and the ability of TNP-470 to inhibit the permeability induced by such amount of VEGF, a modified Miles assay using a dose response of VEGF was used. Groups of 8 week old C57 mice were treated with TNP-470 (30 mg/kg/d s.c. for 3 days) or with saline. Then we injected 100 μl 1% Evan's Blue i.v. and after 10 min injected VEGF intradermally at different concentrations. We collected skin punch biopsies and extracted dye with formamide at RT over 5 days and read the extracts at 620 nm (FIG. 16C).
# VEGFR-2 = VEGFR-2 phosphorylation in HUVEC; type: cell-based, Human; conditions: 5 ng/ml for 2 hours
# Description: Serum-starved (0.1% FBS in EBM-2 media for 24 hours) HMVEC-d or HUVEC were treated with 5 ng/ml TNP-470 and HPMA copolymer-TNP-470 at 37° C. for 2 hours, and then stimulated with 10 ng/ml of VEGF for 5 minutes. Stimulation was stopped by adding cold PBS. […] After washing the beads with precipitation buffer, immunoprecipitates were resuspended in 2× SDS sample buffer for Western blot analysis with an antibody against phosphorylated tyrosine (pTyr).
# U87 glioblastoma cells = test: Cell proliferation assay, U87; type: cell-based, human; conditions: 72 hours
# Description: HMVEC-d cells were trypsinized (0.05% trypsin) and resuspended (15,000 cells/ml) in EBM-2 supplemented with 5% fetal bovine serum (FBS), plated onto gelatinized 24-well culture plates (0.5 ml/well), and incubated for 24 hours (37° C., 5% CO2). The media was replaced with 0.5 ml of complete media (serum and growth factors; EGM-2 MV), and test substances were applied. Cells were challenged with free or conjugated TNP-470 (0.01 pg/ml to 1 mg/ml TNP-470-equivalent concentration). Control cells were grown with or without growth factors. U87 glioblastoma cells were washed with PBS, trypsinized and resuspended (5,000 cells/ml) in DMEM supplemented with 10% FBS, plated onto 24-well culture plates (0.5 ml/well), and incubated for 24 hours (37° C., 5% CO2). The media was replaced with 0.5 ml of DMEM and 10% FBS, and the test sample applied. Cells were challenged with free or conjugated TNP-470 (0.01 pg/ml to 1 mg/ml TNP-470-equivalent concentration). Control cells were grown with or without 10% FBS. Both cell types were incubated for 72 hours, followed by trypsinization, resuspension in Hematall (Fisher Scientific, Pittsburgh, Pa.), and counted in a Coulter counter.
# RhoA = RhoA activation assay; type: cell-based, Human; conditions: HMVEC-d
# Description: • pGST-TRBD bacteria were grown and induced with isopropyl-thiogalactoside. The bacterial suspensions were divided into 50 ml aliquots and then harvested and frozen at −80° C. To prepare the GST-TRBD beads, each aliquot of frozen bacteria was resuspended in 2 ml of cold PBS, and then 20 μl of 1 M dithiothreitol (DTT), 20 μl of 0.2 M PMSF, and 40 μl of 50 mg/ml lysozyme were added. The sample was incubated on ice for 30 minutes. Next, 225 μL of 10% Triton X-100, 22.5 μL of IM MgCl2, 22.5 μl of 2000 KU/ml DNAse were added and the sample was incubated on ice for another 30 min. The supernatant was collected and incubated with 100 μl glutathione-coupled Sepharose 4B beads (Pharmacia Biotech) at 4° C. for 45 minutes. The beads were then washed with bead washing buffer (PBS with 10 mM DTT and 1% Triton X-100) and resuspended in the same buffer to give a 50% bead slurry.
# Meanwhile, 24 hours serum-starved HMVEC-d cells were treated with 5 ng/ml TNP-470 at 37° C. for 2 hours, and then stimulated with 10 ng/ml of VEGF, PAF (10 nM), or histamine ([…]) for 5 minutes. Stimulation was stopped by adding cold PBS. Cells were lysed with lysis buffer (150 mM NaCl, 0.8 mM MgCl2, 5 mM EGTA, 1% IGEPAL, 50 mM HEPES, pH 7.5, 1 mM PMSF, 10 μg/ml leupeptin, and 10 μg/ml aprotinin). The supernatant was isolated and incubated with 50 μl of GST-TRBD beads at 4° C. for 45 minutes. Protein bound to beads was washed with AP wash buffer (50 mM Tris-HCl, pH 7.2, 1% Triton X-100, 150 mM NaCl, 10 mM MgCl2, 1 mM PMSF, 10 μg/ml leupeptin, and 10 μg/ml aprotinin) and analyzed by SDS-PAGE with an antibody against RhoA (Santa Cruz Biotechnology, CA).
# [3] = system: LLC, A2058, MCF-7, MDA-MB-231, BXPC3, U87 tumors; conditions: cited from earlier work
structure (smiles),measurement,setting,value
CO[C@@H]1[C@H](OC(=O)NC(=O)CCl)CC[C@]2(CO2)[C@H]1[C@@]1(C)O[C@@H]1CC=C(C)C [TNP-470],average liver size,liver regeneration,0.7 g
same,total body weight,[1]; 3 days treatment,did not affect total body weight
same,"lung pathological features (congestion, edema, fibrin deposition, mononuclear infiltrate)",[1]; IL-2 treated mice,greatly reduced
same,lung weight,[1]; mice treated with both IL-2 and TNP-470,170.2 ± 10.1 mg
same,VEGF dose up to which permeability was inhibited,[2],up to 25 ng
same,VPF/VEGF-induced phosphorylation of VEGFR-2,VEGFR-2,significantly reduced
same,concentration inhibiting serum-induced proliferation (cytostatic effect),U87 glioblastoma cells; U87 glioblastoma cells,higher than 10 ng/ml
same,cytotoxic concentration,U87 glioblastoma cells; U87 tumor cells,higher than 100 μg/ml
same,PAF-induced RhoA activation,RhoA,inhibited
same,VPF/VEGF-induced RhoA activation,RhoA,significantly suppressed
same,histamine-induced RhoA activation,RhoA,inhibited
same,tumor growth inhibition,[3]; U87 glioblastoma in mice,95%
same,tumor growth inhibition,[3]; all tumor models studied,60-95%
